Experimental data published in patent US9730938B2, “Bruton's tyrosine kinase inhibitor combinations and uses thereof” (Pharmacyclics LLC, priority 2014, dated 2017).

Experiments:
Format in all cases: cell-based
Jeko cells = assay: 3-day CellTiter Glow combination study in Jeko cells with wild-type or mutant CARD11; details: FIG. 6
Protocol: Jeko cells, a MCL cell line, and OCI-Ly3, a DLBCL cell line, were used for this experiment.
In summary, 10,000 cells were plated into 96-well plates and treated with different concentrations of inhibitors. 3 days later, CellTiter Glow reagent was added into the wells and the luminescent signals were measured.

TMD8 = assay: Combined drug treatment cell viability, CellTiter-Glo assay (Example 2); details: 3 days
OCI-LY-10 = assay: as above; details: 3 days
OCI-LY-3 = assay: as above; details: 3 days
HBL-1 = assay: as above; details: 3 days
U2932 = assay: as above; details: 3 days
SU-DHL-2 = assay: as above; details: 3 days
[1] = ibrutinib 0 nM, JAK3 10 μM / MCL-1 3 μM alone
[2] = ibrutinib 0.0512 nM, JAK3 10 μM / MCL-1 3 μM / medium alone
[3] = ibrutinib 0.256 nM, JAK3 10 μM / MCL-1 3 μM / medium alone
[4] = ibrutinib 1.28 nM, JAK3 10 μM / MCL-1 3 μM / medium alone
[5] = ibrutinib 6.4 nM, JAK3 10 μM / MCL-1 3 μM / medium alone
[6] = ibrutinib 32 nM, JAK3 10 μM / MCL-1 3 μM / medium alone
[7] = ibrutinib 160 nM, JAK3 10 μM / MCL-1 3 μM / medium alone
[8] = ibrutinib 800 nM, JAK3 10 μM / MCL-1 3 μM / medium alone
[9] = ibrutinib 20000 nM, JAK3 10 μM / MCL-1 3 μM / medium alone
[10] = ibrutinib 40000 nM, JAK3 10 μM / MCL-1 3 μM / medium alone

SMILES: CC(C)C[C@H](NC(=O)[C@H](Cc1ccccc1)NC(=O)c1cnccn1)B(O)O [Velcade]
- sensitization of Jeko cells containing the mutant CARD11 to ibrutinib treatment (Jeko cells): sensitized

SMILES: C[C@@H]1CCN(C(=O)CC#N)C[C@@H]1N(C)c1ncnc2[nH]ccc12 [tofacitinib]
- luminescence (CellTiter-Glo) (TMD8; [1]): 42085.03
- luminescence (CellTiter-Glo) (TMD8; [2]): 22758.56
- luminescence (CellTiter-Glo) (TMD8; [3]): 22844.02
- luminescence (CellTiter-Glo) (TMD8; [4]): 23722.74
- luminescence (CellTiter-Glo) (TMD8; [5]): 22806.63
- luminescence (CellTiter-Glo) (TMD8; [6]): 23770.82
- luminescence (CellTiter-Glo) (TMD8; [7]): 23674.67
- luminescence (CellTiter-Glo) (TMD8; [8]): 21620.76
- luminescence (CellTiter-Glo) (TMD8; [9]): 6463.53
- luminescence (CellTiter-Glo) (TMD8; [10]): 19962.15
- luminescence (CellTiter-Glo) (OCI-LY-10; [1]): 55820.26
- luminescence (CellTiter-Glo) (OCI-LY-10; [2]): 51855.78
- luminescence (CellTiter-Glo) (OCI-LY-10; [3]): 42984.83
- luminescence (CellTiter-Glo) (OCI-LY-10; [4]): 35330.40
- luminescence (CellTiter-Glo) (OCI-LY-10; [5]): 19547.86
- luminescence (CellTiter-Glo) (OCI-LY-10; [6]): 13432.93
- luminescence (CellTiter-Glo) (OCI-LY-10; [7]): 13583.65
- luminescence (CellTiter-Glo) (OCI-LY-10; [8]): 14159.61
- luminescence (CellTiter-Glo) (OCI-LY-10; [9]): 14383.00
- luminescence (CellTiter-Glo) (OCI-LY-10; [10]): 14751.73
- luminescence (CellTiter-Glo) (OCI-LY-3; [1]): 60068.93
- luminescence (CellTiter-Glo) (OCI-LY-3; [2]): 52005.22
- luminescence (CellTiter-Glo) (OCI-LY-3; [3]): 56590.84
- luminescence (CellTiter-Glo) (OCI-LY-3; [4]): 49371.84
- luminescence (CellTiter-Glo) (OCI-LY-3; [5]): 52737.31
- luminescence (CellTiter-Glo) (OCI-LY-3; [6]): 47894.25
- luminescence (CellTiter-Glo) (OCI-LY-3; [7]): 42659.67
- luminescence (CellTiter-Glo) (OCI-LY-3; [8]): 54193.44
- luminescence (CellTiter-Glo) (OCI-LY-3; [9]): 59782.00
- luminescence (CellTiter-Glo) (OCI-LY-3; [10]): 45217.97
- luminescence (CellTiter-Glo) (HBL-1; [1]): 78088.40
- luminescence (CellTiter-Glo) (HBL-1; [2]): 48007.16
- luminescence (CellTiter-Glo) (HBL-1; [3]): 49532.94
- luminescence (CellTiter-Glo) (HBL-1; [4]): 56756.95
- luminescence (CellTiter-Glo) (HBL-1; [5]): 46403.61
- luminescence (CellTiter-Glo) (HBL-1; [6]): 47226.84
- luminescence (CellTiter-Glo) (HBL-1; [7]): 41745.82
- luminescence (CellTiter-Glo) (HBL-1; [8]): 37551.94
- luminescence (CellTiter-Glo) (HBL-1; [9]): 17614.87
- luminescence (CellTiter-Glo) (HBL-1; [10]): 39380.73
- luminescence (CellTiter-Glo) (U2932; [1]): 74370.91
- luminescence (CellTiter-Glo) (U2932; [2]): 61632.23
- luminescence (CellTiter-Glo) (U2932; [3]): 61314.09
- luminescence (CellTiter-Glo) (U2932; [4]): 61987.79
- luminescence (CellTiter-Glo) (U2932; [5]): 58424.16
- luminescence (CellTiter-Glo) (U2932; [6]): 57921.57
- luminescence (CellTiter-Glo) (U2932; [7]): 55595.72
- luminescence (CellTiter-Glo) (U2932; [8]): 54213.58
- luminescence (CellTiter-Glo) (U2932; [9]): 24327.81
- luminescence (CellTiter-Glo) (U2932; [10]): 54924.70
- luminescence (CellTiter-Glo) (SU-DHL-2; [1]): 133588.4
- luminescence (CellTiter-Glo) (SU-DHL-2; [2]): 154568.4
- luminescence (CellTiter-Glo) (SU-DHL-2; [3]): 167037.0
- luminescence (CellTiter-Glo) (SU-DHL-2; [4]): 171896.5
- luminescence (CellTiter-Glo) (SU-DHL-2; [5]): 165146.8
- luminescence (CellTiter-Glo) (SU-DHL-2; [6]): 173773.3
- luminescence (CellTiter-Glo) (SU-DHL-2; [7]): 165414.5
- luminescence (CellTiter-Glo) (SU-DHL-2; [8]): 167444.0
- luminescence (CellTiter-Glo) (SU-DHL-2; [9]): 2706.8
- luminescence (CellTiter-Glo) (SU-DHL-2; [10]): 164389.1
